The first experiment has as its target Sodium-dependent dopamine transporter (Homo sapiens, UniProt Q01959). Kind of experiment: DRUGMATRIX: Dopamine Transporter radioligand binding (ligand: [125I] RTI-55). Format: cell membranes, CHO-K1, Membrane. To be noted: Not Active = under 50% inhibition at 10 µM; read-out: IC50.
Chain of Sodium-dependent dopamine transporter (Q01959 whole entry): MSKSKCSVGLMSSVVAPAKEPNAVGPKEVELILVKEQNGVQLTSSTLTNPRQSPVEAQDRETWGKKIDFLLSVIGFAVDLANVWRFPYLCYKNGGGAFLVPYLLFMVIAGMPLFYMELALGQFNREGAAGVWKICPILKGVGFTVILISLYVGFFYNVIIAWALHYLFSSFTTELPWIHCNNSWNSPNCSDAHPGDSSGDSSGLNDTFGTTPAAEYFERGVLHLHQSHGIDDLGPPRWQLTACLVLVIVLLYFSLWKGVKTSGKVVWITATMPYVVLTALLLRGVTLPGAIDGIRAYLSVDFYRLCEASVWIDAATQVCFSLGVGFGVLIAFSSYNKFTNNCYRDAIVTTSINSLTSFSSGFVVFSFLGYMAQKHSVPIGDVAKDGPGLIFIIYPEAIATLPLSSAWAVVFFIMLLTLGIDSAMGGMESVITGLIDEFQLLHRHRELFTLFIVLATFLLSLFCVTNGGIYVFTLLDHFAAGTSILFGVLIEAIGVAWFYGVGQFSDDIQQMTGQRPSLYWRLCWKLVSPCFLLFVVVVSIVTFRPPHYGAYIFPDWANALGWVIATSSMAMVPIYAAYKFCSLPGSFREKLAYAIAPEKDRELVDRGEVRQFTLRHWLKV
What is called IC50 is the point on the concentration scale where inhibition reaches its midpoint. Consider `COc1ccc(CN(CCN(C)C)c2ccccn2)cc1` [PYRILAMINE], for which the IC50 was 879 nM.

Still in this experiment, the particulars now being: Not Active = under 50% inhibition at 10 µM; read-out: Ki.
What is called Ki is a measure of affinity in units of concentration, obtained from inhibition or displacement. As for `COc1ccc(CN(CCN(C)C)c2ccccn2)cc1` [PYRILAMINE], the inhibitory constant (Ki) worked out at 699 nM.

The same experiment, now with this note: cho-k1; Not Active = under 50% inhibition at 10 µM.
For the compound `CNC(=O)Oc1ccc2c(c1)[C@]1(C)CCN(C)[C@@H]1N2C` [PHYSOSTIGMINE], the IC50 entry was “Not Active”.
Still for that read-out and setting: the entry for `Nc1nc2c(ncn2COC(CO)CO)c(=O)[nH]1` [GANCICLOVIR] is “Not Active”; for `CC1=Nc2ccc(Cl)cc2S(=O)(=O)N1` [DIAZOXIDE] it is “Not Active”; for `CC(C)(Oc1ccc(CCNC(=O)c2ccc(Cl)cc2)cc1)C(=O)O` [BEZAFIBRATE] it is “Not Active”.

For the next experiment, the target named is T1, Alpha-2A adrenergic receptor (Homo sapiens, UniProt P08913). Further: in other assays of this panel Not Active means under 50% inhibition at 10 µM.
T1 sequence (P08913 whole entry): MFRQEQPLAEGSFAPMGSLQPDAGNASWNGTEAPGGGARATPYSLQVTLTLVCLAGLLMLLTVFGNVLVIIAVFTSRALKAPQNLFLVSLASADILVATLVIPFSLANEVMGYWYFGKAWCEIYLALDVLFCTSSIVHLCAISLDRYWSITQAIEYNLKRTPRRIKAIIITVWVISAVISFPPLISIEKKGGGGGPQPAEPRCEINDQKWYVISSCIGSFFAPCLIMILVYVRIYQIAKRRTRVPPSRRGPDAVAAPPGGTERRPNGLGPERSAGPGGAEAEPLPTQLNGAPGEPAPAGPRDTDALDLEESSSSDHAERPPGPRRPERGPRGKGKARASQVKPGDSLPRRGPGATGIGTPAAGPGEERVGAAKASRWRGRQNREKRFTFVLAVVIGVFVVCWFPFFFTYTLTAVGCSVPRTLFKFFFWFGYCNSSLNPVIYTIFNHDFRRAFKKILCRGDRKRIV
It is filed as cell membranes, Sf9, Membrane. To be noted: read-out: IC50.
On to `COc1ccc(CN(CCN(C)C)c2ccccn2)cc1` [PYRILAMINE], for which the IC50 came to 2980 nM.

Still in this experiment, the particulars now being: read-out: Ki.
In the case of `COc1ccc(CN(CCN(C)C)c2ccccn2)cc1` [PYRILAMINE], the Ki is 1120 nM.

Staying with this experiment, now noted: sf9.
Consider `CNC(=O)Oc1ccc2c(c1)[C@]1(C)CCN(C)[C@@H]1N2C` [PHYSOSTIGMINE], for which the IC50 result is reported as “Not Active”.
In the case of `Nc1nc2c(ncn2COC(CO)CO)c(=O)[nH]1` [GANCICLOVIR], the IC50 result was “Not Active”.
The same measure, in the same setting: for `CC1=Nc2ccc(Cl)cc2S(=O)(=O)N1` [DIAZOXIDE] the value was “Not Active”; for `CC(C)(Oc1ccc(CCNC(=O)c2ccc(Cl)cc2)cc1)C(=O)O` [BEZAFIBRATE], “Not Active”.

A further experiment concerns the target T2, Receptor-type tyrosine-protein phosphatase C (Homo sapiens, UniProt P08575).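 Further: inhibition of CD45 enzyme activity measured using DiFMUP as substrate; in other assays of this panel Not Active means under 50% inhibition at 10 µM.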
T2 sequence (P08575 whole entry): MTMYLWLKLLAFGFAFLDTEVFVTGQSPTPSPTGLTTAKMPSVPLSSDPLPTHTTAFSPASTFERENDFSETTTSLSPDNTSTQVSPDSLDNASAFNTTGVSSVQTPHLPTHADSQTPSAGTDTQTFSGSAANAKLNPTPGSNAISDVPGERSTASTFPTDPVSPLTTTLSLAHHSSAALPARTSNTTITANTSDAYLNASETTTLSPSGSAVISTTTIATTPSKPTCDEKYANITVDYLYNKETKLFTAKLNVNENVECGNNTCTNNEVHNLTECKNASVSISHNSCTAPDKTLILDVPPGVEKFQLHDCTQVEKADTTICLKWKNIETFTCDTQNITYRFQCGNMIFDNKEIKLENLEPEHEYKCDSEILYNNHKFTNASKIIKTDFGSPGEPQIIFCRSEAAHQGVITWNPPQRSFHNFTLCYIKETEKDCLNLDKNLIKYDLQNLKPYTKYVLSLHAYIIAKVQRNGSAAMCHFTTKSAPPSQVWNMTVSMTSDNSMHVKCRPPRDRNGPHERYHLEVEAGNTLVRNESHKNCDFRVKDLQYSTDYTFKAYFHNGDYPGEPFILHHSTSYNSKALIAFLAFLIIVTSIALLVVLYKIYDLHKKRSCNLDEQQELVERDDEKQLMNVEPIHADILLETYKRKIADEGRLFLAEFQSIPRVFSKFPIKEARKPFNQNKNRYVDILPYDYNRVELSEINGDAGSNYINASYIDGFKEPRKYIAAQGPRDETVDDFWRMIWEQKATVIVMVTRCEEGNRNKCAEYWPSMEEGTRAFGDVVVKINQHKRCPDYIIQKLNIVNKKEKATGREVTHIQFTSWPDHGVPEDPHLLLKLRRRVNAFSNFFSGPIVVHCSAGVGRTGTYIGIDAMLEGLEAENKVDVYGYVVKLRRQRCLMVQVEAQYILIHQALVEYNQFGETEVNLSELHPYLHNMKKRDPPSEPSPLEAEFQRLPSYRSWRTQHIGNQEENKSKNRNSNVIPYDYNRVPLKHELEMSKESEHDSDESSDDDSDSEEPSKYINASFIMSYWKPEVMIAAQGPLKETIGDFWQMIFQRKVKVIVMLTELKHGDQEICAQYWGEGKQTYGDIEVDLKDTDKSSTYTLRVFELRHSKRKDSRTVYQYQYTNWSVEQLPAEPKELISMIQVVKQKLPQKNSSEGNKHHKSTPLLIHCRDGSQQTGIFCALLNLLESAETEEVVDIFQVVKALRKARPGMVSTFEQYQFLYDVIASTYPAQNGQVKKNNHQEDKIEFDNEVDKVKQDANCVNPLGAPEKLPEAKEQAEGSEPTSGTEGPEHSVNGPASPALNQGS
Further details: species or system Escherichia coli.
Conditions: not given
`CNC(=O)Oc1ccc2c(c1)[C@]1(C)CCN(C)[C@@H]1N2C` [PHYSOSTIGMINE]: the IC50 entry is recorded as “Not Active”.
As for `Nc1nc2c(ncn2COC(CO)CO)c(=O)[nH]1` [GANCICLOVIR], the IC50 entry is reported as “Not Active”.
For `CC1=Nc2ccc(Cl)cc2S(=O)(=O)N1` [DIAZOXIDE], the IC50 result was “Not Active”.
As to `CC(C)(Oc1ccc(CCNC(=O)c2ccc(Cl)cc2)cc1)C(=O)O` [BEZAFIBRATE], the 50% inhibitory concentration (IC50) entry is recorded as “Not Active”.
On the same count and under the same terms, the entry for `COc1ccc(CN(CCN(C)C)c2ccccn2)cc1` [PYRILAMINE] is “Not Active”.

In a further experiment the target is T3, Muscarinic acetylcholine receptor M5 (Homo sapiens, UniProt P08912). Further: in other assays of this panel Not Active means under 50% inhibition at 10 µM.
T3 sequence (P08912 whole entry): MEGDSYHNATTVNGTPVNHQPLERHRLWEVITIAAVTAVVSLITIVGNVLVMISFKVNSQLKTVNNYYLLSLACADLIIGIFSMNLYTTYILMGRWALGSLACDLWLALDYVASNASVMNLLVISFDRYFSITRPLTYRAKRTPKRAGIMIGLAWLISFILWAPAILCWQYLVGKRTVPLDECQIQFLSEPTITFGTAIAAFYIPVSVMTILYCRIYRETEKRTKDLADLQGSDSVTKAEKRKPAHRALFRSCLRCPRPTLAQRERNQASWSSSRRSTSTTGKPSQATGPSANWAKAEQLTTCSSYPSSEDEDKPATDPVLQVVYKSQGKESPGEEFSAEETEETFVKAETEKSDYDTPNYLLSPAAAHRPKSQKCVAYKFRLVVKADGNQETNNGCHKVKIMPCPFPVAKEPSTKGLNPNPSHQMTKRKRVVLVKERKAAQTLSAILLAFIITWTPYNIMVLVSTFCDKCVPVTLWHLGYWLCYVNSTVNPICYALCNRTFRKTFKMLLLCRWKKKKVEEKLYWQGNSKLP
It is filed as cell membranes, CHO-K1, Membrane. The settings on record: cho-k1.
Take `CNC(=O)Oc1ccc2c(c1)[C@]1(C)CCN(C)[C@@H]1N2C` [PHYSOSTIGMINE]: the IC50 result is recorded as “Not Active”.
Still for that read-out and setting: the entry for `Nc1nc2c(ncn2COC(CO)CO)c(=O)[nH]1` [GANCICLOVIR] is “Not Active”; for `CC1=Nc2ccc(Cl)cc2S(=O)(=O)N1` [DIAZOXIDE] it is “Not Active”; for `CC(C)(Oc1ccc(CCNC(=O)c2ccc(Cl)cc2)cc1)C(=O)O` [BEZAFIBRATE] it is “Not Active”.
On to `COc1ccc(CN(CCN(C)C)c2ccccn2)cc1` [PYRILAMINE], for which the IC50 entry is listed as “Not Active”.

The target of another experiment is Aldo-keto reductase family 1 member B1 (Rattus norvegicus, UniProt P07943). It is filed as tissue-based, Lens of camera-type eye.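 Further: inhibition of aldose reductase enzyme activity, measured with DL-glyceraldehyde as the substrate; in other assays of this panel Not Active means under 50% inhibition at 10 µM.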
Conditions: not given
On to `CNC(=O)Oc1ccc2c(c1)[C@]1(C)CCN(C)[C@@H]1N2C` [PHYSOSTIGMINE], for which the IC50 result is given as “Not Active”.
On the same count and under the same terms, for `Nc1nc2c(ncn2COC(CO)CO)c(=O)[nH]1` [GANCICLOVIR] the value was “Not Active”.
Same read-out and setting: the entry for `CC1=Nc2ccc(Cl)cc2S(=O)(=O)N1` [DIAZOXIDE] is “Not Active”.
For the compound `CC(C)(Oc1ccc(CCNC(=O)c2ccc(Cl)cc2)cc1)C(=O)O` [BEZAFIBRATE], the IC50 result was “Not Active”.
Take `COc1ccc(CN(CCN(C)C)c2ccccn2)cc1` [PYRILAMINE]: the IC50 result is listed as “Not Active”.

The target in another experiment is T4, Type-2 angiotensin II receptor (Homo sapiens, UniProt P50052). Further: in other assays of this panel Not Active means under 50% inhibition at 10 µM.
T4 sequence (P50052 whole entry): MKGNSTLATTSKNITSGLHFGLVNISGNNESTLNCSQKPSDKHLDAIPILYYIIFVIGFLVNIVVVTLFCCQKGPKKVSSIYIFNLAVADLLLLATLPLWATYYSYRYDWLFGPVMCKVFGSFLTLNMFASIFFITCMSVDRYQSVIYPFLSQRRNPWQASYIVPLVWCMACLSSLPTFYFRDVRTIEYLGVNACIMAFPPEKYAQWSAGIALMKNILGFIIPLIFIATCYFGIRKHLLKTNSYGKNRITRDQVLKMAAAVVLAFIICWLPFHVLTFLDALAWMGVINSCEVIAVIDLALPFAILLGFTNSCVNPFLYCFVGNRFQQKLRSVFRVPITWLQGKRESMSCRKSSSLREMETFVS
Format: cell-based. The settings on record: cho-k1.
With `CNC(=O)Oc1ccc2c(c1)[C@]1(C)CCN(C)[C@@H]1N2C` [PHYSOSTIGMINE], the IC50 result is “Not Active”.
Consider `Nc1nc2c(ncn2COC(CO)CO)c(=O)[nH]1` [GANCICLOVIR], for which the IC50 result is reported as “Not Active”.
Turning to `CC1=Nc2ccc(Cl)cc2S(=O)(=O)N1` [DIAZOXIDE], the IC50 result was “Not Active”.
`CC(C)(Oc1ccc(CCNC(=O)c2ccc(Cl)cc2)cc1)C(=O)O` [BEZAFIBRATE]: the IC50 entry is “Not Active”.
Consider `COc1ccc(CN(CCN(C)C)c2ccccn2)cc1` [PYRILAMINE], for which the IC50 entry was “Not Active”.

System in the next experiment: not listed separately
Kind of experiment: DRUGMATRIX: Sodium/nucleoside co-transporter radioligand binding (ligand: nitrobenzylthioinosine). It is filed as cell membranes, Cavia porcellus, Dunkin-Hartley, Cerebral cortex, Membrane. To be noted: Not Active = under 50% inhibition at 10 µM.
On to `CNC(=O)Oc1ccc2c(c1)[C@]1(C)CCN(C)[C@@H]1N2C` [PHYSOSTIGMINE], for which the IC50 entry is recorded as “Not Active” and the Ki entry is “Not Active”.
For the compound `Nc1nc2c(ncn2COC(CO)CO)c(=O)[nH]1` [GANCICLOVIR], the 50% inhibitory concentration (IC50) entry is “Not Active” and the Ki entry is recorded as “Not Active”.
For the compound `CC1=Nc2ccc(Cl)cc2S(=O)(=O)N1` [DIAZOXIDE], the IC50 result is given as “Not Active” and the Ki entry is on record as “Not Active”.
Turning to `CC(C)(Oc1ccc(CCNC(=O)c2ccc(Cl)cc2)cc1)C(=O)O` [BEZAFIBRATE], the IC50 result is recorded as “Not Active” and the Ki result is “Not Active”.
Regarding `COc1ccc(CN(CCN(C)C)c2ccccn2)cc1` [PYRILAMINE], the IC50 entry is given as “Not Active” and the Ki result is recorded as “Not Active”.
